Assay results: ChEMBL document CHEMBL1201862, “PubChem BioAssay data set” (2004)
Calls of active or inactive are those of the source.

How the values were obtained:
[1] = molecular target: CAAX prenyl protease 2 (Homo sapiens, UniProt Q9Y256); experiment: inhibition of Ras-converting CAAX protease Rce1 – biochemical, yeast membranes, quenched-peptide fluorescence, cherry-pick, dose response (AID 588849)
[2] = tested on: HEK293; experiment: cells; assay type: functional, cell-based; conditions: Homo sapiens
[3] = molecular target: Nuclear receptor subfamily 0 group B member 1 (Homo sapiens, UniProt P51843); experiment: Luminescence-based cell-based high throughput dose response assay for inhibitors of the orphan nuclear receptor subfamily 0, group B, member 1 (DAX1; NR0B1). [Related pubchem assays (depositor defined):AID504766, AID504790]; assay type: functional
Chain of Nuclear receptor subfamily 0 group B member 1 (P51843 whole entry): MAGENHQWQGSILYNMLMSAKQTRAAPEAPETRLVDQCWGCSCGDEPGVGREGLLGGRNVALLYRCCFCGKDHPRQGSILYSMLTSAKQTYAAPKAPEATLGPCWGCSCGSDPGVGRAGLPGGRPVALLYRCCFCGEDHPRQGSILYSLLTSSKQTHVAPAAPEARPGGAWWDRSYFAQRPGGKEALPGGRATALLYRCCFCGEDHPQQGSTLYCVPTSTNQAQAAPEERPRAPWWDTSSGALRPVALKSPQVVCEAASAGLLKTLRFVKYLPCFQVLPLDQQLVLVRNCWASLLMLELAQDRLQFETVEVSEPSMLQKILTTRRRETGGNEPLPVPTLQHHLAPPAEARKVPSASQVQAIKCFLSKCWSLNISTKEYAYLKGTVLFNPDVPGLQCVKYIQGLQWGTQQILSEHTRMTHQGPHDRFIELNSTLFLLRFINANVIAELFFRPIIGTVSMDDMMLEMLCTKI

[4] = molecular target: Beta-adrenergic receptor kinase 1 (Homo sapiens, UniProt P25098); experiment: aptamer displacement from bead-bound GRK2 – biochemical, cherry pick 1, bead flow cytometry, dose response (AID 504500)
Chain of Beta-adrenergic receptor kinase 1 (P25098 whole entry): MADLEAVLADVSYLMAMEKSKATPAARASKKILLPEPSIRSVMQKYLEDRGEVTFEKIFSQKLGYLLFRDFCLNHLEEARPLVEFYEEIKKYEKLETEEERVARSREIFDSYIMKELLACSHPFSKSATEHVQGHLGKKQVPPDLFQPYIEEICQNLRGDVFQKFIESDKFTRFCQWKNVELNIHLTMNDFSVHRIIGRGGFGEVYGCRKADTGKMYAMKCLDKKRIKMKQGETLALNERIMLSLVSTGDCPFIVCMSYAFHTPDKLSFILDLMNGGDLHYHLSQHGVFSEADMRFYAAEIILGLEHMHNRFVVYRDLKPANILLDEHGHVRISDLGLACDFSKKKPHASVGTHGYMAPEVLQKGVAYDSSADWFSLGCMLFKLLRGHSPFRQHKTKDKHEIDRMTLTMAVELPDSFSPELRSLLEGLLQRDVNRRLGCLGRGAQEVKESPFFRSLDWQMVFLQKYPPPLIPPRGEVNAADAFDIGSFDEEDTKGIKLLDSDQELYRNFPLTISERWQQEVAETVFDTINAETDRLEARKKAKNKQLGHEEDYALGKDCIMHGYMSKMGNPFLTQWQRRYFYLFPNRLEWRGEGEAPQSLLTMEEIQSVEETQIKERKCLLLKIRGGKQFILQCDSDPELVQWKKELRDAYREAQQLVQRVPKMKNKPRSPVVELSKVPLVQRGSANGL

[5] = viability loss of HMLE_sh_eGFP cells – cell-based, luminescence, counter-screen for HMLE_sh_ECad selective toxicity project, dose response (AID 463074); assay type: functional, Homo sapiens;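 further: HMLE human mammary epithelial cells expressing control shRNA against eGFP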
[6] = Luminescence Cell-Based Dose Retest to Confirm Inhibitors of Cancer Stem Cells. [Related pubchem assays (depositor defined):AID2717, AID2721]; assay type: functional; conditions: Homo sapiens
[7] = tested on: INS1; experiment: INS-1E survival protection against cytokine death – cell-based, luminescence, retest, dose response (AID 449756); assay type: functional; conditions: Rattus norvegicus;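 further: cell death triggered by IL-1 beta plus TNF-alpha plus IFN-gamma mixture; protective hits raise ATP signal compared with cytokine alone wells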
[8] = molecular target: NACHT, LRR and PYD domains-containing protein 3 (Homo sapiens, UniProt Q96P20); experiment: NALP3 inhibitors in yeast, dose response, luminescent (AID 488799); assay type: functional
[9] = loss of viability in HepG2 cells – cell-based, CellTiter-Glo, cherry-picked, cytotoxicity control for Shn3 inhibitor project, dose response (AID 624134); assay type: functional
[10] = tested on: CHO; experiment: CHO cell viability loss, potency – luminescence, cytotoxicity control for TLR9-MyD88 binding inhibitor project, dose response (AID 588339); assay type: functional, cell-based, hamster; conditions: Cricetulus griseus;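 further: CHO cells stably coexpressing TLR9 and MyD88 fusions from primary screen; compound exposure lasted 48 hours before viability readout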
[11] = molecular target: Heat shock protein HSP 90-alpha (Homo sapiens, UniProt P07900); assay type: functional, organism-based
[12] = molecular target: T1, Protein RecA (Mycobacterium tuberculosis, UniProt P9WHJ3); experiment: Fluorescence Cell-Free Homogeneous Dose Retest to Identify Inhibitors of RecA-Intein Splicing Activity. [Related pubchem assays (depositor defined):AID2097, AID2223, AID489010, AID492950]; assay type: functional
T1 sequence (P9WHJ3 whole entry): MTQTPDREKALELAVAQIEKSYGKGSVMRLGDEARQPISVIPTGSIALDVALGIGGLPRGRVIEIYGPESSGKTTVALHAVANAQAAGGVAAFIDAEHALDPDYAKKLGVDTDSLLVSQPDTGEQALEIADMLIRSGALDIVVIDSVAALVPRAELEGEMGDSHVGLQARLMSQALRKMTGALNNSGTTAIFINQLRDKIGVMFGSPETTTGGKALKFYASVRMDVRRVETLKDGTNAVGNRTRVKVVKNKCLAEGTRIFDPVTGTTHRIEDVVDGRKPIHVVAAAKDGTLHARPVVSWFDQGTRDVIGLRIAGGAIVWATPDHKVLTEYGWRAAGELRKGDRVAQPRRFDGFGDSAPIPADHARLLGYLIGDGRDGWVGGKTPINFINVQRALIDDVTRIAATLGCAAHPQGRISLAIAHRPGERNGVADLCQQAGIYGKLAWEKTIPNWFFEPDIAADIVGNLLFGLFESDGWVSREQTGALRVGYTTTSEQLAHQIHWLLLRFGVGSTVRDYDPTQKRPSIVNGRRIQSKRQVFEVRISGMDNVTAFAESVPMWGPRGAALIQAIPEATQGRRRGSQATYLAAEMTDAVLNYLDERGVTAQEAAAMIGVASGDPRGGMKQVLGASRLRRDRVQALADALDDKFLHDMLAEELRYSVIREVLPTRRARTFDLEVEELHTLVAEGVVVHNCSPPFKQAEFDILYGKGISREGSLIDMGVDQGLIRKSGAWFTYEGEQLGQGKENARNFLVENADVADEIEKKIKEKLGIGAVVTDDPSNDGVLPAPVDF

[13] = non-specific 3'UTR reporter inhibition in Clone20-Shn3RL – cell-based, Renilla luciferase, cherry-picked, counter-screen for Shn3 inhibitor project, dose response (AID 624133); assay type: functional
[14] = molecular target: Beta Lactamase (Pseudomonas aeruginosa, UniProt Q932Y6); experiment: BLA reporter interference, concentration series – BLA reporter cells, FRET fluorescence, artefact control for TLR9-MyD88 binding inhibitor project, dose response (AID 588341); assay type: cell-based;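 further: cell based assay in CHO-K1 cells stably expressing beta-lactamase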
Chain of Beta Lactamase (Q932Y6 whole entry): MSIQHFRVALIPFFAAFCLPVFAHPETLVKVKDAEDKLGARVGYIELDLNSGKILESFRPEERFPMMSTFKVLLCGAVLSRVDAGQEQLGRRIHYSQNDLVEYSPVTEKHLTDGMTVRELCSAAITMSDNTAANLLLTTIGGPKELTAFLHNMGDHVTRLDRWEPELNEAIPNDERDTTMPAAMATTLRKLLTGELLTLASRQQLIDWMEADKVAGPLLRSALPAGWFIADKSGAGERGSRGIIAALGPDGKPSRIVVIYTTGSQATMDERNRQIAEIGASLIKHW

[15] = molecular target: ATP-binding cassette sub-family B member 6 (Homo sapiens, UniProt Q9NP58); experiment: concentration-dependent ABCB6 porphyrin transport blockade – K562-ABCB6 cells, flow cytometry, cherry pick 1, dose response (AID 623955); assay type: functional; conditions: read-out: EC50_MICROM
[16] = molecular target: T2, Replicative DNA helicase DnaB (Mycobacterium tuberculosis, UniProt P9WMR3); experiment: DnaB intein splicing inhibitors, dose response, biochemical, cell-free fluorescence (AID 449749); assay type: functional
T2 sequence (P9WMR3 whole entry): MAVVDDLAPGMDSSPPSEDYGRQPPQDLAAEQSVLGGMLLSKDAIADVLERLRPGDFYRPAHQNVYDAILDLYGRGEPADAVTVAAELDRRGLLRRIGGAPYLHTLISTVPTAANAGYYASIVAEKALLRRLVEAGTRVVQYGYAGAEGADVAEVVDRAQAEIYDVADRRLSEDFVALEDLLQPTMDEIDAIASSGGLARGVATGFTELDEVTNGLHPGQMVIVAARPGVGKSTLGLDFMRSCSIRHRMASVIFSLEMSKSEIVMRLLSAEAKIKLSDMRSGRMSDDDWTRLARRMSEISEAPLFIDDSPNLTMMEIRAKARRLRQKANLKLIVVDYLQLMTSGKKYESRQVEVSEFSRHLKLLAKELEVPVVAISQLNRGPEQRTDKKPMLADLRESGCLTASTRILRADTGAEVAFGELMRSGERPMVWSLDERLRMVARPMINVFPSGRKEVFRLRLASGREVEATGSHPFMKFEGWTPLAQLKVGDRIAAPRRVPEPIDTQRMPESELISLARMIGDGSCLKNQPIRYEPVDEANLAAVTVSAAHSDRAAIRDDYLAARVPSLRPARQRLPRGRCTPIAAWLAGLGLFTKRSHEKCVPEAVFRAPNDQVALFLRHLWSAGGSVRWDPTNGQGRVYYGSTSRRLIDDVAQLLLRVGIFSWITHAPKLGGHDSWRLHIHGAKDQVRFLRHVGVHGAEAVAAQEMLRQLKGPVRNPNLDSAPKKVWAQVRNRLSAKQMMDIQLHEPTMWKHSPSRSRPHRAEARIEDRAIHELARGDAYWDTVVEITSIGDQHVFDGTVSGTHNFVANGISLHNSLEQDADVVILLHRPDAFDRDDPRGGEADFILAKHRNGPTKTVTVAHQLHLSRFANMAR

[17] = reduction of Shn3 3'UTR-driven luciferase in osteoblasts – cell-based, Clone20 osteoblasts, firefly luciferase, cherry-picked, dose response (AID 624132); assay type: functional;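 further: firefly luciferase luminescence from reporter carrying the Shn3 3'UTR in osteoblasts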
[18] = molecular target: T3, Voltage-gated N-type calcium channel alpha-1B subunit/Amyloid beta A4 precursor protein-binding family A member 1 (Homo sapiens, UniProt Q00975+Q02410); assay type: protein assay
T3 sequence (Q00975 whole entry): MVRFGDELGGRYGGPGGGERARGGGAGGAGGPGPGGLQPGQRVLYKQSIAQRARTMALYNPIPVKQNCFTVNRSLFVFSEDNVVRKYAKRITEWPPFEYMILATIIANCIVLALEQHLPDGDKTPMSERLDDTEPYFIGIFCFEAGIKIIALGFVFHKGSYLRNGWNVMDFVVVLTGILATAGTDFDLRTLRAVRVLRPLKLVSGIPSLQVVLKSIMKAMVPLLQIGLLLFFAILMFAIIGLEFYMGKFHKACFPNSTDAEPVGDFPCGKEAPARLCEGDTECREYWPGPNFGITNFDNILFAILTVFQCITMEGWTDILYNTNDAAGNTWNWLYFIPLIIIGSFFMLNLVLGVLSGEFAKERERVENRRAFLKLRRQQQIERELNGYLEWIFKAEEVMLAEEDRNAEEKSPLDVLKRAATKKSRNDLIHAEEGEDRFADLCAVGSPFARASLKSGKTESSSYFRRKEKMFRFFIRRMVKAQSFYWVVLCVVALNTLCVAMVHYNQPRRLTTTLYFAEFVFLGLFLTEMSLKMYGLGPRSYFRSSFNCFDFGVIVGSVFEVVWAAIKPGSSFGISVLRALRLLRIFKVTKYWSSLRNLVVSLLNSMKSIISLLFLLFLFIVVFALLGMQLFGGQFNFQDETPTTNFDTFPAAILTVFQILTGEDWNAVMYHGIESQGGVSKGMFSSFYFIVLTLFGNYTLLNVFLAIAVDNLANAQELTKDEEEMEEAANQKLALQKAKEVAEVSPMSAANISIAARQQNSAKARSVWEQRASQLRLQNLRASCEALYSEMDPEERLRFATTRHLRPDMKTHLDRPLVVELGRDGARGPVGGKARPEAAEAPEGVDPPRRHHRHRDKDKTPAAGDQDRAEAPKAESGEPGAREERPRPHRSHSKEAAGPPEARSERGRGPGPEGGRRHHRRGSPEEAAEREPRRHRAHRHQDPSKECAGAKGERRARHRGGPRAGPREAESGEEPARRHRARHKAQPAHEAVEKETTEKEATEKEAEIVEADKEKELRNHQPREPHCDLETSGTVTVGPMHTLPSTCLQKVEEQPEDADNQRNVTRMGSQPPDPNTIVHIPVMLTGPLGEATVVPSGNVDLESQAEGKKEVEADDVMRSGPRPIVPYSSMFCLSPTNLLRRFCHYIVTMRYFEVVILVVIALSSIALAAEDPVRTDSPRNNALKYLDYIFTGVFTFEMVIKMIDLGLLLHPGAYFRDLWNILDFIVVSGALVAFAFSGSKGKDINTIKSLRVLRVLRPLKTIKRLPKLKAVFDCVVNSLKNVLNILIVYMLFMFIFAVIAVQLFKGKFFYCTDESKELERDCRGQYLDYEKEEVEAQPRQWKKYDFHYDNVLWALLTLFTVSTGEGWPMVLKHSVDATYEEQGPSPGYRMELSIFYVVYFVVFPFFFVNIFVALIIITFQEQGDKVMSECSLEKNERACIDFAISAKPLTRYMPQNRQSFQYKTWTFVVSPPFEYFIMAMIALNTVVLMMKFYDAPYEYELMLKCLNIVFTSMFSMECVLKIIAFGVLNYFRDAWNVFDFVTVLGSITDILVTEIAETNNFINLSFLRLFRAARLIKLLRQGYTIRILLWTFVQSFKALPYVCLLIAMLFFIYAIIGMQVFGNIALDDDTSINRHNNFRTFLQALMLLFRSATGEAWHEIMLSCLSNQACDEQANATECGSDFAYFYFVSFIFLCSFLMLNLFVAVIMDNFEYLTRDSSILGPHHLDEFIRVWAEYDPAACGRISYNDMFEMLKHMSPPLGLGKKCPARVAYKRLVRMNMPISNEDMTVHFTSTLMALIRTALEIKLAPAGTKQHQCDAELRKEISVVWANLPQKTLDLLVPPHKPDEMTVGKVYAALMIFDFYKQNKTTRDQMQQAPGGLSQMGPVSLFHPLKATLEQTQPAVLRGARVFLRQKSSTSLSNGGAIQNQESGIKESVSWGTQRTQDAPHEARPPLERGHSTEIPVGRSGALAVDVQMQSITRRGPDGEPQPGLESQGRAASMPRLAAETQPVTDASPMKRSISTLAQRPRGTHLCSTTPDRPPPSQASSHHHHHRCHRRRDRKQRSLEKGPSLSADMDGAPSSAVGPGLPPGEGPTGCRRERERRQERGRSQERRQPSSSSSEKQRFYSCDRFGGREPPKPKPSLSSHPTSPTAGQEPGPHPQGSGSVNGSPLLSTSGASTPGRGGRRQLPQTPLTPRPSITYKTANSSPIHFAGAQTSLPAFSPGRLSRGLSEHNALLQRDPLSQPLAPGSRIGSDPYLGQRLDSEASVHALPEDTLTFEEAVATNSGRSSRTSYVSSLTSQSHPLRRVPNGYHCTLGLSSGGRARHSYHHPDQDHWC
T3 sequence (Q02410 whole entry): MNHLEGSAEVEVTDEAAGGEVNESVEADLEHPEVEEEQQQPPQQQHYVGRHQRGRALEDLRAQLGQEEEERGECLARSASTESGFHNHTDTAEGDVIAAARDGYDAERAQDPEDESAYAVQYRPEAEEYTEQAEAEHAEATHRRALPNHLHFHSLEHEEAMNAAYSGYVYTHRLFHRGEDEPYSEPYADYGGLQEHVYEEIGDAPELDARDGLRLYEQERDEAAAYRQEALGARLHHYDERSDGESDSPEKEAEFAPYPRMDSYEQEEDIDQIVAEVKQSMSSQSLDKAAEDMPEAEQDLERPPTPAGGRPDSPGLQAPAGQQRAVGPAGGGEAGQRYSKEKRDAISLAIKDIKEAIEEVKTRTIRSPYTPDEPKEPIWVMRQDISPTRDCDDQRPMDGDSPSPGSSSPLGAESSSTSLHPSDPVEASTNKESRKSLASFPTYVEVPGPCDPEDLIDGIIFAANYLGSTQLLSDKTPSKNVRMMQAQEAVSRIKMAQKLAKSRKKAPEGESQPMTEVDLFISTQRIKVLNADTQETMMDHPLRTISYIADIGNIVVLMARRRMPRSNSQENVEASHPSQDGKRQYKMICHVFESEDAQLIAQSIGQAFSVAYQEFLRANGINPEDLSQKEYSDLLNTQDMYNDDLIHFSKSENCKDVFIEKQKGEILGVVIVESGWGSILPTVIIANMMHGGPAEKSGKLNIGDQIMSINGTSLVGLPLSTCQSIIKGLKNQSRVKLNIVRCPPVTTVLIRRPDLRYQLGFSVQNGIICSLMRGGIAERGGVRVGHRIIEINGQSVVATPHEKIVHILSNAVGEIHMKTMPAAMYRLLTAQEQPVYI

[19] = molecular target: T4, Apoptotic protease-activating factor 1 (Homo sapiens, UniProt O14727); experiment: activation of Apaf-1 mediated apoptosis – fluorescent, uHTS hits, dose response (AID 588554); assay type: functional
T4 sequence (O14727 whole entry): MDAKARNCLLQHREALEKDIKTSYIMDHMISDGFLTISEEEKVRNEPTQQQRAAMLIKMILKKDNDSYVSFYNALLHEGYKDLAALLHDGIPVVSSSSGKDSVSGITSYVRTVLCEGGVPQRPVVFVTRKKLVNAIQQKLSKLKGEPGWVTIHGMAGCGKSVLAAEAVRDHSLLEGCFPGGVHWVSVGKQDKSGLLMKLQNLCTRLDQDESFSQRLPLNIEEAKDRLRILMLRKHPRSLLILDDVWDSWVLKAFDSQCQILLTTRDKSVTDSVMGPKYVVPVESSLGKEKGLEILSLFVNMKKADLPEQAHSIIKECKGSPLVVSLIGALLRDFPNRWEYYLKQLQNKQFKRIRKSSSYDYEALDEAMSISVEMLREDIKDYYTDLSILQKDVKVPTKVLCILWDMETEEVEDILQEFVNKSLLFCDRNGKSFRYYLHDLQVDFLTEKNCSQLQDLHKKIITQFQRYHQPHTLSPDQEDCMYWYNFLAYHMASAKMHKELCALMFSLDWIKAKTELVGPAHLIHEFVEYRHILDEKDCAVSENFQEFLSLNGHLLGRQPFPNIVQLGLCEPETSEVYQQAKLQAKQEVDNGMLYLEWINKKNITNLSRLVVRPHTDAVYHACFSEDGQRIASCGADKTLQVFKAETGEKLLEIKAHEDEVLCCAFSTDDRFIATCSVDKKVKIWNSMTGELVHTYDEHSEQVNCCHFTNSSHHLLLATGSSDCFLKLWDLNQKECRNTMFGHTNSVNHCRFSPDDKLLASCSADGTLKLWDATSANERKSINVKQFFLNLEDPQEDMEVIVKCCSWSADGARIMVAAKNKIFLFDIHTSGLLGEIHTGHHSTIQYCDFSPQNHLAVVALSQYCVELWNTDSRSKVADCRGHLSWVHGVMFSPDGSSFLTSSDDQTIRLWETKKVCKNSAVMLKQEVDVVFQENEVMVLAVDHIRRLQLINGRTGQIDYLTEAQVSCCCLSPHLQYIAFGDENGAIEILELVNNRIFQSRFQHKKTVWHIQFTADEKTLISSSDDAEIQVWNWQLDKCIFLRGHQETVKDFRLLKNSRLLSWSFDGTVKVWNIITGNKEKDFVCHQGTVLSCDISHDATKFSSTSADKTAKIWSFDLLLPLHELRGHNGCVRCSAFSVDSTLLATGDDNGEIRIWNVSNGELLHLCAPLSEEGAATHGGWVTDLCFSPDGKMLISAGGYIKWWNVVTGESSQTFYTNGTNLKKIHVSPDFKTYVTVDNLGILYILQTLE

[20] = molecular target: T3, Voltage-gated N-type calcium channel alpha-1B subunit/Amyloid beta A4 precursor protein-binding family A member 1; assay type: protein assay; remark: listed apart in the source
[21] = tested on: INS1; experiment: suppression of cytokine-induced beta-cell apoptosis – INS-1E, caspase luminescence, dry powder, beta-cell apoptosis inhibitor project, dose response (AID 488848); assay type: functional, cell-based; conditions: Rattus norvegicus
[22] = tested on: INS1; experiment: INS-1E mitochondrial potential rescue under cytokines – cell-based, JC-1 fluorescence ratio, dry powder, dose response (AID 488931); assay type: functional; conditions: Rattus norvegicus
[23] = tested on: INS1; experiment: beta-cell survival under cytokine stress – INS-1E, ATP luminescence, dry powder, dose response (AID 488844); assay type: functional, cell-based; conditions: Rattus norvegicus
[24] = tested on: HeLa; experiment: ATP-based viability loss in HeLa cells – cell-based, CellTiter-Glo luminescence, cherry-pick samples, cytotoxicity control for MITF activator project, dose response (AID 540259); assay type: functional; conditions: Homo sapiens
[25] = Luminescence Cell-Based Dose Confirmation HTS to Identify Activators of 5'UTR Stem-Loop Driven Alpha-Synuclein mRNA Translation in H4 Neuroglioblastoma Cells. [Related pubchem assays: 1829 (Project Summary), 1814 (Primary HTS)]; assay type: functional
[26] = Luminescence Cell-Based Dose Response HTS to Identify Activators of Luciferase Translation or Activity in H4 […] Cells. [Related pubchem assays: 1829 (Project Summary), 1814 (Primary HTS)]; assay type: functional
[27] = tested on: H4; experiment: Luminescence Cell-Based Dose Response HTS to Identify Activators of 5'UTR Stem-Loop Driven Prion Protein mRNA Translation in H4 Neuroglioblastoma Cells. [Related pubchem assays: 1829 (Project Summary), 1814 (Primary HTS)]; assay type: functional; conditions: Homo sapiens

Chain of CAAX prenyl protease 2 (Q9Y256 whole entry): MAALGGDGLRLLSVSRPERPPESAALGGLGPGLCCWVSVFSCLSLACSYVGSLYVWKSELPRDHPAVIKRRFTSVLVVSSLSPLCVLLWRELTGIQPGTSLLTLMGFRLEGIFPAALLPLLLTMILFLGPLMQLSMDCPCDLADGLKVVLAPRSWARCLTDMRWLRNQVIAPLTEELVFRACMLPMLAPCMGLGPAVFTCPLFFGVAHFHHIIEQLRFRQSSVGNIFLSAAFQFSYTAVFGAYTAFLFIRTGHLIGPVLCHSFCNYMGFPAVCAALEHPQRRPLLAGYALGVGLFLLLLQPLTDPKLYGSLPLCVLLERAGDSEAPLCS

For `COc1cccc(/C=C/C(=O)OCC(=O)Nc2ccc(Cl)c(S(=O)(=O)N(C)C)c2)c1OC`, the AC50 [1] was 20.9 µM (active).

In the case of `CCOc1ccc2nc(NS(=O)(=O)Cc3ccccc3)sc2c1`, the IC50 [2] is reported as > 67.5 µM (inactive) and the IC50 [3] is reported as > 67.5 µM (inactive).

In the case of `CCCC[N+](C)(C)CCC(=O)NC(C)(C)CS(=O)(=O)[O-]`, the EC50 [4] is reported as 4.53 µM (active).

In the case of `C=CC[n+]1c(-c2ccc(OCC)cc2)csc1NNC(=O)Nc1ccccc1`, the AC50 [5] is reported as 24.7 µM (active), the AC50 [6] is reported as 88.4 µM (active) and the AC50 [7] is reported as 6.63 µM (active).

In the case of `Cc1ccc(NC(=O)c2nc(S(=O)(=O)Cc3ccccc3)ncc2Cl)cc1`, the IC50 [8] is reported as 3.58 µM (active), the AC50 [9] is reported as 24.6 µM (active) and the IC50 [10] is reported as 3.31 µM (active). The AC50 [11] was 3.21 µM (active), the EC50 [12] was 0.88 µM (active) and the AC50 [6] was 2.57 µM (active). For the same compound, the AC50 [13] was 6.01 µM (active), the IC50 [14] was 8.3 µM (active) and the EC50 [15] was 34.7 µM (active). The AC50 [16] was 23 µM (active), the AC50 [17] was 3.42 µM (active) and the AC50 [7] was 9.27 µM (active).

For `O=C(CCS(=O)(=O)c1ccc(Br)cc1)NCc1ccco1`, the IC50 [18] was > 50 µM (inactive), the EC50 [19] was 23.4 µM (active) and the IC50 [20] was 12.1 µM (active).

With `C[C@@H]1CN([C@@H](C)CO)C(=O)c2cccc(NC(=O)Nc3ccc(F)cc3)c2O[C@H]1CN(C)S(=O)(=O)c1ccc(F)cc1` the AC50 [21] was > 195 µM (inactive), the AC50 [22] was 63.3 µM (active) and the AC50 [23] was 72 µM (active).

In the case of `COc1ccc(/C(O)=C/C=N/c2cccc(C)n2)cc1OC`, the AC50 [24] is reported as 50.8 µM (active), the EC50 [25] is reported as 0.146 µM (active) and the EC50 [26] is reported as 0.122 µM (active). The EC50 [27] was 48.3 µM (active).
